Data on five substances can be found in patent US20170326232A1, “INTRATUMORAL ADMINISTRATION OF PARTICLES CONTAINING A TOLL-LIKE RECEPTOR 9 AGONIST AND A TUMOR ANTIGEN FOR TREATING CANCER” (Dynavax Technologies Corporation, priority 2016, published 2017).

Values joined by “and” are separate entries in the source; they are usually repeats but may differ in a detail not shown here. Identical values can stand only once. Like-named read-outs stand apart in the source and are kept apart here. Square brackets hold non-standard residues; d marks the D form. Ends that are not written are not given here. PEG24 = NCCOCCOCCOCCOCCOCCOCCOCCOCCOCCOCCOCCOCCOCCOCCOCCOCCOCCOCCOCCOCCOCCOCCOCCOCCC(=O)O; Cha = N[C@@H](CC1CCCCC1)C(=O)O

Common to all, as to format: physicochemical
A short description of data set [1]: Adsorption of CpG-ODN to aluminum hydroxide, quantified by UV absorbance at 260 nm. The settings on record: for D61-01 binding: co-adsorption with AH1 CII peptide; for % D61-04 Bound: Al(OH)3 1.0 mg.
Data set [2] in a line: Solubilization of peptide antigens in buffers and organic solvents (visual assessment). The arrangement: key to Qualitative Solubility score: 1 = fully soluble/clarity similar to water; 2 = partially soluble; 3 = insoluble.
Data set [3] can be described thus: Adsorption of peptide antigens to aluminum hydroxide, quantified by UV, amino acid analysis or RP-HPLC. The settings on record: RP-HPLC at 215 nm.
Where [4] appears, read: 10 mM NaOAc, 150 mM NaCl, pH 7.0.
Where [5] appears, read: input 0.25 mg to 1 mg aluminum hydroxide, pH 7.0.
The mark [6] stands for this setting: input 0.50 mg to 1 mg aluminum hydroxide, pH 7.0.
The mark [7] stands for this setting: input 1.0 mg to 1 mg aluminum hydroxide, pH 7.0.
Setting [8] is: input 1.5 mg to 1 mg aluminum hydroxide, pH 7.0.

On to “5′-TCGGCGC-3′-HEG-5′-AACGTTC-3′-HEG-5′-TCGGCGC-3′ (DNA TCGGCGCAACGTTCTCGGCGC; HEG spacers, phosphorothioate linkages, chemistry not fully specified) [D61-01]”, for which, in data set [1] (setting [4]), the “maximum bound by 1 mg of aluminum hydroxide” value stood at 1.0 mg. The “D61-01 Binding efficiency” value in data set [1] (10 mM NaOAc, 150 mM NaCl, pH 7.0, Table S3-1) is 71-100%. Besides, the D61-01 binding was 86% in data set [1] (2.5 mg of aluminum) and 100% in data set [1] (four out of five conditions). Further, the D61-01 binding efficiencies in data set [1] (co-adsorption with HPV16 peptide, two reactions) is 74% and 80%. The Binding efficiency in data set [1] (setting [5]) is 100%; in data set [1] (setting [6]) it was 100%; in data set [1] (setting [7]) it was 99%; in data set [1] (setting [8]) it was 65%. Besides, the Bound in data set [1] (setting [5]) amounted to 0.25 mg; in data set [1] (setting [6]), 0.50 mg; in data set [1] (setting [7]), 0.99 mg; in data set [1] (setting [8]), 0.97 mg.
“CSGLEQLESIINFEKLTEWTSSNVMEERKIKV [OVApep]”: the solubility in data set [2] (0.1 M sodium bicarbonate buffer, 0.1 M sodium bicarbonate, pH 8 buffer, read-out: solubility) was 2000 to 4000 µg/mL; in data set [2] (water, PBS or sodium acetate (NaOAc) buffers), “not appreciably soluble”.
“5′-TCGAACGTTCGAACGTTCGAACGTTCGAAT-3′ (DNA TCGAACGTTCGAACGTTCGAACGTTCGAAT; DNA, all phosphorothioate, methylation of C not given here) [D61-04]”: the “maximum bound by 1 mg of aluminum hydroxide” value in data set [1] (setting [4]) amounted to 1.1 mg. The Binding efficiency amounted to 100% in data set [1] (setting [5]), 100% in data set [1] (setting [6]), 89% in data set [1] (setting [7]) and 73% in data set [1] (setting [8]). Moreover, the Bound in data set [1] (setting [5]) was found to be 0.25 mg; in data set [1] (setting [6]), 0.50 mg; in data set [1] (setting [7]) it was 0.89 mg; in data set [1] (setting [8]) it was 1.1 mg. Also, the “% D61-04 Bound” value in data set [1] (pH 6.5, D61-04 input 1.0 mg) came out at 92%; in data set [1] (pH 6.5, D61-04 input 1.5 mg) it was 78%; in data set [1] (pH 6.5, D61-04 input 2.0 mg), 63%; in data set [1] (pH 7.0, D61-04 input 1.0 mg) it was 91%; in data set [1] (pH 7.0, D61-04 input 1.5 mg), 73%; in data set [1] (pH 7.0, D61-04 input 2.0 mg), 61%. Further, the “% D61-04 Bound” value in data set [1] (pH 7.5, D61-04 input 1.0 mg) came out at 92%; in data set [1] (pH 7.5, D61-04 input 1.5 mg) it was 74%; in data set [1] (pH 7.5, D61-04 input 2.0 mg), 60%.
Regarding “[PEG24]VGALEGPRNQDWLAK[Cha]VAAWTLKAAATAYRYHLLSSVYDFFVWLSC [Triple, PEG24-VGALEGPRNQDWLAKXVAAWTLKAAATAYRYHLLSSVYDFFVWLSC wherein X = L-cyclohexylalanine]”, the solubility result in data set [2] (0.1 M sodium bicarbonate pH 8 buffer, water, PBS, sodium bicarbonate or NaOAc buffers) is “not appreciably soluble”; in data set [2] (6M guanidine hydrochloride pH 8.5 or 20% IPA/water (v/v), read-out: solubility), 1000 to 5000 µg/mL.
For the substance “HRQLQLSISSCLQQLSLLMWITQCFLPVFLAQ [NY-ESO-1142-173 OLP]”, the “Qualitative Solubility score” value in data set [2] (Acetic acid) was 1; in data set [2] (Acetone) it was 1; in data set [2] (Ethanol), 1; in data set [2] (Formic acid) it was 1; in data set [2] (Isoamyl alcohol), 3; in data set [2] (Isopropyl acetate), 3. For the same substance, the “Qualitative Solubility score” value in data set [2] (Methyl acetate) and in data set [2] (n-Butyl acetate) was 3 throughout. For the same substance, the “Visual Appearance” value in data set [2] (Acetic acid) is reported as “clear”; in data set [2] (Acetone), “clear”; in data set [2] (Ethanol) it was “clear”; in data set [2] (Formic acid) it was “clear”; in data set [2] (Isoamyl alcohol), “hazy”; in data set [2] (Isopropyl acetate), “hazy/insoluble”. Further, the “Visual Appearance” value in data set [2] (Methyl acetate) and in data set [2] (n-Butyl acetate) was “hazy/insoluble” throughout. In data set [2] (six solvents diluted to 20% solvent/80% water (v/v), data not shown), the “solubility after dilution of solvent” value is listed as “remained visually soluble”. The “(%) binding efficiency to aluminum hydroxide” value in data set [3] (2-Butanol), in data set [3] (Acetic acid), in data set [3] (Acetone), in data set [3] (Ethanol), in data set [3] (Formic acid) and in data set [3] (Isopropyl alcohol) was 100% in each case.

For orientation: solubility means the concentration that dissolves in the medium under given conditions.
